Measurements taken from patent publication US10370364B1, “Substituted chromenes for treatment of fibrosis or non-alcoholic steatohepatitis” (OSTEONEUROGEN INC., priority 2018, dated 2019).

Legend:
C57BL/6 mice = assay: Bleomycin-induced pulmonary fibrosis animal model; format: in vivo; settings: for Mean Collagen % (histopathology collagen morphometry, left lung): Sirius red
From the text: 5-week-old male C57BL/6 mice (weighed 18.2 to 20.5 g) (KOATECH, Korea) were used as experimental animals and divided into several groups, each consisting of 5 animals.
The experimental animals were housed in a housing box having a size of 369 L×156 W×132H (mm) (EU, USA, UK GL compliance) made of a polysulfone material in a SPF (Specific Pathogen Free) and BSL (Bio Safety Level) 2 grade facility. The number of animals in each housing box was 2 to 3 during the period of quarantine and acclimatization and was also 2 to 3 during the experimental period, and the housing conditions were set to a temperature of 22±2° C., a relative humidity of 50.0±15.0%, a ventilation cycle of 10 to 20 times/hr, a light-dark cycle (a photoperiod) of 12 hr/day (07:00 to 19:00), and an illumination intensity of 150 to 300 Lux.
Pulmonary fibrosis was induced by injecting a bleomycin solution directly into the lungs via the trachea according to the intratracheal instillation (IT) method of Kremer, Laxer and Berkman et al. Specifically, C57BL/6J mice were anesthetized through inhalation with 70% N2O and 30% O2 gas and 1.5% isoflurane, and the skin of the anterior neck thereof was excised and the organs under the muscle thereof were exposed and then carefully excised using ophthalmic surgical scissors. 50 μL of a solution of bleomycin in distilled water was injected directly into the lungs all at once via the excised organ by use of a 1 mL syringe fitted with a 19-gauge injection needle having a blunt tip. Immediately after the injection, the excised skin of the anterior neck was sutured and the mice were allowed to recover from the anesthetic, and then housed in a general housing cage. The administration of bleomycin was performed using a visual instillobot, and bleomycin-HCl 40 μg/50 μL was administered once and a pulmonary fibrosis induction period of 12 days was set.
The compound of the present invention was used after dissolution in 30% HPCD aqueous solution (Formulation Example 5), and the dose for each individual was calculated based on the recent body weight thereof. 12 Days after the administration of bleomycin, the compound of the present invention was administered once a day (5 times a week) for 2 weeks. As a control, pirfenidone which is a therapeutic agent for idiopathic pulmonary fibrosis was administered in the same manner.
On 15 days after administration of the compound, the mice were sacrificed, and then the right lung of each mouse was dissected and the weight thereof was measured. […] In particular, it is noted that the inhibitory effect of the compound in the group administered at 10 mpk was the highest compared to that in the group administered at 50 or 100 mpk and was also higher than that in the group administered with pirfenidone 100 mpk.
The amounts of hydroxyproline (HP) and collagen in the dissected right lung were measured using a known method.
Histopathology collagen morphometry of the dissected left lung tissue was performed using a known method (calculating the area of collagen in an optical image obtained by Sirius red staining of the lung tissue sample).
The pathological conditions of the left lung tissue dissected using a known method were examined by H&E and Sirius Red staining. […] In particular, it is noted that the inhibitory effect of the compound in the group administered at 10 mpk was the highest compared to that in the groups administered at other concentrations.
In order to examine the effect of each treatment in this Experiment on the liver, the liver of each of the sacrificed mice was dissected, and the pathological conditions of the liver tissue were examined by H&E staining.

A549 cell line = assay: TGF-β-induced myofibroblast differentiation of A549 cell line; format: cell-based, human; settings: A549, TGF-β 5 ng/ml, compound 25 or 50 μM, 24 or 48 hours
Protocol: The A549 cell line, which is a lung adenocarcinoma cell line used as a lung EMT-related study model, was seeded into medium, cultured for 24 hours, and then treated with TGF-β (5 ng/ml). Alternatively, the A549 cell line was co-treated with TGF-β and the compound of the present invention (25 or 50 μM in DMSO) and cultured for 24 or 48 hours. Next, the cells were examined with a phase contrast microscope (200×).

CYP3A4 = CYP3A4 (Homo sapiens, UniProt P08684)
ONGHEPA1 cells = assay: TGF-β-induced fibrosis of ONGHEPA1 cells (differentiation into myofibroblasts, phase contrast microscope); format: cell-based, rat; settings: TGF-β 5 ng/ml, compound 50 μM in DMSO, 24 hours
Protocol: In order to examine the effect of a compound of the present invention against fibrosis, ONGHEPA1 cells (KCTC13086BP), which are mesenchymal stem cells (MSCs) derived from rat hepatic stellate cells (HSCs) and capable of proliferating indefinitely, were first used. Fibrosis of the ONGHEPA1 cells can be induced by a simple method of treating the cells with TGF-β (transforming growth factor beta) or PDGF (platelet-derived growth factor).
The ONGHEPA1 cells were seeded into medium, cultured for 24 hours, and then treated with TGF-β (5 ng/ml) to induce cell fibrosis. Alternatively, the cells were co-treated with TGF-β and the compound of the present invention (50 μM in DMSO) and cultured for 24 hours. Next, the degree of fibrosis of the cells, that is, the degree of differentiation into myofibroblasts, was examined with a phase contrast microscope (200×).
In this regard, the detailed experimental method followed the paper of Kim et al. (Han-Soo Kim, Jun-Hwan Kim, Ji Yong Lee, Young-Min Yoon, Ik-Hwan Kim, Ho-Sup Yoon, Byung-Soo Youn. Small molecule-mediated reprogramming of epithelial-mesenchymal transition thereby blocking fibrosis. bioRxiv preprint first posted online Feb. 16, 2017; doi: http://dx.doi.org/10.1101/106591).
The effects of the following comparative compounds against fibrosis were examined in the same manner as described in Experimental Example 1-1 above.

CYP3A4, sequence (P08684 whole entry): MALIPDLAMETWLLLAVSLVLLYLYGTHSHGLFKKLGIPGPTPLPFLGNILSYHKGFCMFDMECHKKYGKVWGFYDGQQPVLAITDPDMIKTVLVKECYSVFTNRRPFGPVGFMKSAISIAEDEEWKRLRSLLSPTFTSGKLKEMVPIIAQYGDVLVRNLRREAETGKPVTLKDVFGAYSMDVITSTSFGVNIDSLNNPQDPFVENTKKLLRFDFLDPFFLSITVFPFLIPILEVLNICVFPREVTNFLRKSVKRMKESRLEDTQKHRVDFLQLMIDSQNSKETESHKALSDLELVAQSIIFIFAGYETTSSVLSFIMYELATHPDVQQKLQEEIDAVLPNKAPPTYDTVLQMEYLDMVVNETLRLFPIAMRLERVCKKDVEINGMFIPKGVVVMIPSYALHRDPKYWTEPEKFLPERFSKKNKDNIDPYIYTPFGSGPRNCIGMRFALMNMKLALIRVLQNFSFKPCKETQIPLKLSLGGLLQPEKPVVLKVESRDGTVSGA

## COc1ccc(-c2cc(=O)c3c(O)c(OC)c(OCCN4CCNC(=O)C4)cc3o2)cc1OC [Compound 1, 4-(2-((2-(3,4-dimethoxyphenyl)-5-hydroxy-6-methoxy-4-oxo-4H-chromen-7-yl)oxy)ethyl)piperazin-2-one]
C57BL/6 mice; 10 mpk PO
  Protection Collagen %: 59%
  Mean Collagen % (histopathology collagen morphometry, left lung): 2.8%
C57BL/6 mice; 10 mpk compared to 50 or 100 mpk and pirfenidone 100 mpk
  inhibitory effect on right lung weight, comparison of dose groups: the highest
C57BL/6 mice; 10 mpk compared to other concentrations
  inhibitory effect on lung fibrosis symptoms, comparison of dose groups: the highest
C57BL/6 mice; 50 mpk PO
  Protection Collagen %: 66%
  Mean Collagen % (histopathology collagen morphometry, left lung): 2.4%
C57BL/6 mice; 100 mpk PO
  Protection Collagen %: 59%
  Mean Collagen % (histopathology collagen morphometry, left lung): 2.8%
C57BL/6 mice; bleomycin mice, 10-100 mpk PO
  amount of collagen in right lung: significantly inhibited this increase
  amount of hydroxyproline (HP) in right lung: significantly inhibited this increase
  fibrosis symptoms of left lung tissue, H&E and Sirius Red staining: significantly inhibited such fibrosis symptoms
  increase of collagen in left lung tissue, morphometry (in words): significantly inhibited this increase
C57BL/6 mice; bleomycin mice, 10-100 mpk PO in 30% HPCD, once a day 5 times a week for 2 weeks
  increase in the right lung weight: significantly inhibited
C57BL/6 mice; bleomycin mice, 50 mpk
  pathological condition of liver tissue, H&E staining: showed hepatotoxic symptoms
C57BL/6 mice; bleomycin mice, 100 mpk
  pathological condition of liver tissue, H&E staining: showed hepatotoxic symptoms
C57BL/6 mice; group administered at 100 mpk
  inhibitory effect on collagen, comparison of dose groups: highest
  inhibitory effect on hydroxyproline, comparison of dose groups: highest
C57BL/6 mice; mouse, in vivo, 10 mg/kg
  pathological condition of liver tissue, H&E staining: showed the same condition as that of normal liver tissue
A549 cell line
  myofibroblast differentiation: inhibited
CYP3A4
  inhibitory activity against CYP3A4 (in words): little or very low inhibitory activity
ONGHEPA1 cells
  degree of fibrosis of the cells (differentiation into myofibroblasts): showed no fibrosis symptom
